Measurements: patent US10336701B2, “Pyridin-2-one derivatives of formula (II) useful as EP3 receptor antagonists” (Janssen Pharmaceutica NV, priority 2017, dated 2019)

Experiments:
[1] = biological target: T1, EP3 receptor (Homo sapiens, UniProt P43115); experiment: [3H]-PGE2 binding assay (EP3 competition binding); details: read-out: [3H]-PGE2 Binding Ki
T1 construct: purchased Millipore HTS092M
T1 sequence (P43115 1-390): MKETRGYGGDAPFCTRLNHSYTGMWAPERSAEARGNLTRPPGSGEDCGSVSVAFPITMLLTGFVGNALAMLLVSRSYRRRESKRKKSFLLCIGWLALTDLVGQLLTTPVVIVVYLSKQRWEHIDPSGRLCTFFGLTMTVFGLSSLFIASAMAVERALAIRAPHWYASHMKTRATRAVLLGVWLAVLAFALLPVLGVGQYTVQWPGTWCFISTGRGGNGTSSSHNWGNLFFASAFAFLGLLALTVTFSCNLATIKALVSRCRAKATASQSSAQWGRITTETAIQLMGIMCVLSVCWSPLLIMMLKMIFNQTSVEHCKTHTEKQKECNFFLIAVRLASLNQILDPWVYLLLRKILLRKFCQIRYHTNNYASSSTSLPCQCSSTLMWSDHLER
Summary of the method: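 Scintillation-bead competition binding with EP3 membranes (2 μg/well), 2 nM [3H]-PGE2, 0.1% DMSO, in 50 mM Tris, 10 mM MgCl2, 1 mM EDTA, pH 7.4.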

[2] = biological target: T1, EP3 receptor; experiment: CHO cell cAMP assay (forskolin and sulprostone stimulated, HTRF); assay type: cell-based; details: CHO cells; sulprostone 700 nM (EC80) and FSK 2 μM (EC70), 37° C. for 30 minutes; read-out: CHO_cAMP IC50

| SMILES | Ki [1] [nM] | IC50 [2] [nM] |
| --- | --- | --- |
| CCn1ncc2c(F)cc(-c3ccc(C(CC4OC(=O)NC4=O)C(C)C)c(=O)[nH]3)cc21 (stereo not shown) [compound 87, 5-(2-(6-(1-ethyl-4-fluoro-1H-indazol-6-yl)-2-oxo-1,2-dihydropyridin-3-yl)-3-methylbutyl)oxazoli-dine-2,4-dione] | 32 | 149 |
| CCC(CC)(CC1OC(=O)NC1=O)c1ccc(-c2ccc3cccc(F)c3c2)[nH]c1=O (stereo not shown) [compound 9, 5-(2-ethyl-2-(6-(8-fluoronaphthalen-2-yl)-2-oxo-1,2-dihydropyridin-3-yl)butyl)oxazolidine-2,4-dione] | 23 | 108 |
| CC(C)C(F)(C(=O)NS(=O)(=O)c1cc(F)cc(F)c1)c1ccc(-c2ccc3cccc(F)c3c2)[nH]c1=O (stereo not shown) [compound 173, N-((3,5-difluorophenyl)sulfonyl)-2-fluoro-2-(6-(8-fluoronaphthalen-2-yl)-2-oxo-1,2-dihydropyridin-3-yl)-3-methylbutanamide] | 153 | 1300 |
| CCn1ncc2c(F)cc(-c3ccc(C(/C=C4\CCNC4=O)(CC)CC)c(=O)[nH]3)cc21 [compound 16, 6-(1-ethyl-4-fluoro-indazol-6-yl)-3-[1-ethyl-1-[(E)-(2-oxopyrrolidin-3-ylidene)methyl]propyl]-1H-pyridin-2-one] | 6 | 17 |
| CCn1ncc2c(F)cc(-c3ccc(C(CC)(CC)c4ncco4)c(=O)[nH]3)cc21 [Compound #30, 6-(1-ethyl-4-fluoro-1H-indazol-6-yl)-3-(3-(oxazol-2-yl)pentan-3-yl)pyridin-2(1H)-one] | 2 | 12 |
| CC(C)C(/C=C1\OC(=O)NC1=O)c1ccc(-c2cc(F)c3cnn(C(C)C)c3c2)[nH]c1=O (stereo not shown) [compound 122, (Z)-5-(2-(6-(4-fluoro-1-isopropyl-1H-indazol-6-yl)-2-oxo-1,2-dihydropyridin-3-yl)-3-methylbutylidene)oxazolidine-2,4-dione] | 32 | 278 |
| O=C1NC(=O)/C(=C/C(c2ccc(-c3ccc4cccc(F)c4c3)[nH]c2=O)C2CCCC2)O1 (stereo not shown) [compound 92, (Z)-5-(2-cyclopentyl-2-(6-(8-fluoronaphthalen-2-yl)-2-oxo-1,2-dihydropyridin-3-yl)ethylidene)oxazolidine-2,4-dione] | 9 | 7 |
| CCn1cnc2ccc(-c3ccc(C(C=C4OC(=O)NC4=O)C(C)C)c(=O)[nH]3)c(F)c21 (stereo not shown) [compound 91, 5-(2-(6-(3-ethyl-4-fluoro-3H-benzo[d]imidazol-5-yl)-2-oxo-1,2-dihydropyridin-3-yl)-3-methylbutylidene)oxazolidine-2,4-dione] | > 10000 | > 20000 |
| CCN1CCOc2ccc(-c3ccc(C(CC)(CC)CC4OC(=O)NC4=O)c(=O)[nH]3)cc21 (stereo not shown) [compound 44, 5-(2-ethyl-2-(6-(4-ethyl-3,4-dihydro-2H-benzo[b][1,4]oxazin-6-yl)-2-oxo-1,2-dihydropyridin-3-yl)butyl)oxazolidine-2,4-dione] | 93 | 505 |
| CCn1ncc2c(F)cc(-c3ccc(C(Cc4noc(=O)[nH]4)C(C)C)c(=O)[nH]3)cc21 (stereo not shown) [Compound #99, 3-(2-(6-(1-ethyl-4-fluoro-1H-indazol-6-yl)-2-oxo-1,2-dihydropyridin-3-yl)-3-methylbutyl)-1,2,4-oxadiazol-5(4H)-one] | 921 | 4880 |
| CCn1ncc2c(F)cc(-c3ccc(C(CN4CCS(=O)(=O)CC4)C(C)C)c(=O)[nH]3)cc21 (stereo not shown) [Compound #133, 4-{2-[6-(1-ethyl-4-fluoroindazol-6-yl)-2-oxo-1H-pyridin-3-yl]-3-methylbutyl},4-thiomorpholine-1,1-dione] | 12 | 235 |
| CC(C)C(c1ccc(-c2ccc3cccc(F)c3c2)[nH]c1=O)n1ccnc1N (stereo not shown) [Compound #162, 3-(1-(2-amino-1H-imidazol-1-yl)-2-methylpropyl)-6-(8-fluoronaphthalen-2-yl)pyridin-2(1H)-one] | 13 | 117 |
| CC(C)C(c1ccc(-c2ccc3cccc(F)c3c2)[nH]c1=O)n1cnnc1N (stereo not shown) [compound 160, 3-(1-(3-amino-4H-1,2,4-triazol-4-yl)-2-methylpropyl)-6-(8-fluoronaphthalen-2-yl)pyridin-2(1H)-one] | 13 | 44 |
| CCN1CCOc2ccc(-c3ccc(C(CN4CCS(=O)(=O)CC4)C(C)C)c(=O)[nH]3)cc21 (stereo not shown) [Compound #104, 3-(1-(1,1-dioxidothiomorpholino)-3-methylbutan-2-yl)-6-(4-ethyl-3,4-dihydro-2H-benzo[b][1,4]oxazin-6-yl)pyridin-2(1H)-one] | 53 | 375 |
| O=c1[nH]c(-c2ccc3ccccc3c2)ccc1C1CCNCC1 [compound 194, 6-(naphthalen-2-yl)-3-(piperidin-4-yl)pyridin-2(1H)-one] | > 10000 | > 20000 |
| CC(C)C(c1nnn[nH]1)c1ccc(-c2ccc3ccccc3c2)[nH]c1=O (stereo not shown) [compound 61, 3-(2-Methyl-1-(1H-tetrazol-5-yl)propyl)-6-(naphthalen-2-yl)pyridin-2(1H)-one] | 43 | 376 |

Next, values leading:

| Ki [1] [nM] | IC50 [2] [nM] | SMILES |
| --- | --- | --- |
| 501 | 2390 | CC(C)C(C(=O)NCCN(C)C)c1ccc(-c2ccc3c(c2)OCCN3C)[nH]c1=O (stereo not shown) [compound 244, N-(2-(dimethylamino)ethyl)-3-methyl-2-(6-(4-methyl-3,4-dihydro-2H-benzo[b][1,4]oxazin-7-yl)-2-oxo-1,2-dihydropyridin-3-yl)butanamide] |
| 106 | 1410 | O=C1NC(=O)C2(CCC(c3ccc(-c4ccc5ccccc5c4)[nH]c3=O)CC2)N1 (stereo not shown) [compound 203, 8-(6-(naphthalen-2-yl)-2-oxo-1,2-dihydropyridin-3-yl)-1,3-diazaspiro[4.5]decane-2,4-dione] |
| 2 | 6 | CONC1=NC(c2ccc(-c3ccc4cccc(F)c4c3)[nH]c2=O)(C(C)C)CN1 (stereo not shown) [compound 292, (Z)-6-(8-fluoronaphthalen-2-yl)-3-(4-isopropyl-2-(methoxyimino)imidazolidin-4-yl)pyridin-2(1H)-one] |
| 169 | 967 | CCn1ncc2c(F)cc(-c3ccc(C4CCN(C(=O)CO)CC4)c(=O)[nH]3)cc21 [compound 197, 6-(1-ethyl-4-fluoro-1H-indazol-6-yl)-3-(1-(2-hydroxyacetyl)piperidin-4-yl)pyridin-2(1H)-one] |
| 343 | 4570 | CC(C)C(O)(C(N)=O)c1ccc(-c2ccc3c(c2)OCCN3C)[nH]c1=O (stereo not shown) [compound 225, 2-hydroxy-3-methyl-2-(6-(4-methyl-3,4-dihydro-2H-benzo[b][1,4]oxazin-7-yl)-2-oxo-1,2-dihydropyridin-3-yl)butanamide] |
| 8 | 87 | CCn1ncc2c(F)cc(-c3ccc(C4CCC5(CCCNC5=O)CC4)c(=O)[nH]3)cc21 (stereo not shown) [compound 196, 9-(6-(1-ethyl-4-fluoro-1H-indazol-6-yl)-2-oxo-1,2-dihydropyridin-3-yl)-2-azaspiro[5.5]undecan-1-one] |
| 12 | 142 | CC(C)C(C(=O)NCCOCCOCCN(C)C)c1ccc(-c2ccc3cccc(F)c3c2)[nH]c1=O (stereo not shown) [compound 229, N-(2-(2-(2-(dimethylamino)ethoxy)ethoxy)ethyl)-2-(6-(8-fluoronaphthalen-2-yl)-2-oxo-1,2-dihydropyridin-3-yl)-3-methylbutanamide] |
| 4 | 12 | CO/N=C1\NC(=O)C(c2ccc(-c3ccc4cccc(F)c4c3)[nH]c2=O)(C(C)C)N1 (stereo not shown) [compound 237, (Z)-6-(8-fluoronaphthalen-2-yl)-3-(4-isopropyl-2-(methoxyimino)-5-oxoimidazolidin-4-yl)pyridin-2(1H)-one] |
| 7 | 281 | CCn1ncc2c(F)cc(-c3ccc(C4CCN(S(=O)(=O)C(C)C)C4)c(=O)[nH]3)cc21 (stereo not shown) [compound 213, 6-(1-ethyl-4-fluoro-1H-indazol-6-yl)-3-(1-(isopropylsulfonyl)pyrrolidin-3-yl)pyridin-2(1H)-one] |
| 69 | 931 | CC(C)C(CC(=O)NS(C)(=O)=O)c1ccc(-c2ccc3ccccc3c2)[nH]c1=O (stereo not shown) [compound 250, 4-methyl-N-(methylsulfonyl)-3-(6-(naphthalen-2-yl)-2-oxo-1,2-dihydropyridin-3-yl)pentanamide] |
| 108 | 4070 | NC(=O)C1(c2ccc(-c3ccc4ccccc4c3)[nH]c2=O)CCCC1 [compound 219, 1-(6-(naphthalen-2-yl)-2-oxo-2,3-dihydropyridin-3-yl)cyclopentanecarboxamide] |
| 2 | 79 | CCn1ncc2c(F)cc(-c3ccc(C4(O)CCCN(S(=O)(=O)C(C)C)C4)c(=O)[nH]3)cc21 (stereo not shown) [compound 295, 6-(1-ethyl-4-fluoro-1H-indazol-6-yl)-3-(3-hydroxy-1-(isopropylsulfonyl)piperidin-3-yl)pyridin-2(1H)-one] |
| 2600 | 14000 | CC(C)C(C(=O)NCCN(C)C)c1ccc(-c2ccc3scnc3c2)[nH]c1=O (stereo not shown) [compound 243, 2-(6-(benzo[d]thiazol-5-yl)-2-oxo-1,2-dihydropyridin-3-yl)-N-(2-(dimethylamino)ethyl)-3-methylbutanamide] |
